Laboratory results reported in patent US20210198277A1, “AMINE-SUBSTITUTED ARYL OR HETEROARYL COMPOUNDS” (Epizyme, Inc., priority 2016, published 2021).
pIC50: −log10 of the molar value. Like-named read-outs stand apart in the source and are kept apart here.

Tests used:
[1] = molecular target: T1, EHMT1 (Homo sapiens, UniProt Q9H9B1); assay: EHMT1 enzyme assay on peptide substrate (EHMT1 PEP); assay type: biochemical; details: for IC50: read-out: EHMT1 PEP (IC50 μM); for pIC50: Table VII, read-out: EHMT1 PEP IC50
T1 sequence (Q9H9B1 1-1298): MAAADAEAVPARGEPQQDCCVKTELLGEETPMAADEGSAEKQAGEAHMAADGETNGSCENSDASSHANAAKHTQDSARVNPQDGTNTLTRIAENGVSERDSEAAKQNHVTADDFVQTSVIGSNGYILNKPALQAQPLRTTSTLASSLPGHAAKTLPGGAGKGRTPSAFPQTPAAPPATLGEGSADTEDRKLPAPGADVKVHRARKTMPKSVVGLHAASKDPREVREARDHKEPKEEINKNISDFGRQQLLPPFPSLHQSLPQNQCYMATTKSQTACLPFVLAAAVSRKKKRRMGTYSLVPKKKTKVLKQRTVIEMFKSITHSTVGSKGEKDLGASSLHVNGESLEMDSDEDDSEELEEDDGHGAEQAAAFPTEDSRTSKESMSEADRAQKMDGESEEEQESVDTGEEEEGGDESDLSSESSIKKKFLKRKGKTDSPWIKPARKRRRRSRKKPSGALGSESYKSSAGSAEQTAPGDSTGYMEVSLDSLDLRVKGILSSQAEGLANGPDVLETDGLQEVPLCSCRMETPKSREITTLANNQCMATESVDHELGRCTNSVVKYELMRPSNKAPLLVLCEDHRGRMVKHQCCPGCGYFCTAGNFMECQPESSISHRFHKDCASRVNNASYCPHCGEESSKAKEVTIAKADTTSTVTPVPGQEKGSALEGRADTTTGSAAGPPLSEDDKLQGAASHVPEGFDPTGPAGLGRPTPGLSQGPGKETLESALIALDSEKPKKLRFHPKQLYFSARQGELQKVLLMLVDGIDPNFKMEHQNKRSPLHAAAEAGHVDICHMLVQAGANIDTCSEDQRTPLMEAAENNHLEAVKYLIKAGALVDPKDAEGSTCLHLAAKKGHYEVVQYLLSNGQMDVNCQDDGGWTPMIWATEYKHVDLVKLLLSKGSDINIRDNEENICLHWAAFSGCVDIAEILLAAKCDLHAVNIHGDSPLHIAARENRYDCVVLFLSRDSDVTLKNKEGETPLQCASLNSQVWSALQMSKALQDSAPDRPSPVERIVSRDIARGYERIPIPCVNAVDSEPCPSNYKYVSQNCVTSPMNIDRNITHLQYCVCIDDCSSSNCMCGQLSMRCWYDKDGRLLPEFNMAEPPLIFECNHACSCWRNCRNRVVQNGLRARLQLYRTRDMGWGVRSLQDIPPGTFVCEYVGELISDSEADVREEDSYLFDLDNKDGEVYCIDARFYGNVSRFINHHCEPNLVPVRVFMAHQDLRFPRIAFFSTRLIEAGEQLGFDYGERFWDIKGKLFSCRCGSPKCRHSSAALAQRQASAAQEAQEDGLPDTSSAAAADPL

[2] = molecular target: T2, human EHMT2 913-1193 (Homo sapiens, UniProt Q96KQ7); assay: EHMT2 enzyme assay on histone peptide substrate (EHMT2 PEP); assay type: biochemical; details: for IC50: read-out: EHMT2 PEP (IC50 μM); for pIC50: Table VII, read-out: EHMT2 PEP IC50
T2 construct: recombinant purified human EHMT2 913-1193, Viva; purchased Viva
T2 sequence (Q96KQ7 913-1193): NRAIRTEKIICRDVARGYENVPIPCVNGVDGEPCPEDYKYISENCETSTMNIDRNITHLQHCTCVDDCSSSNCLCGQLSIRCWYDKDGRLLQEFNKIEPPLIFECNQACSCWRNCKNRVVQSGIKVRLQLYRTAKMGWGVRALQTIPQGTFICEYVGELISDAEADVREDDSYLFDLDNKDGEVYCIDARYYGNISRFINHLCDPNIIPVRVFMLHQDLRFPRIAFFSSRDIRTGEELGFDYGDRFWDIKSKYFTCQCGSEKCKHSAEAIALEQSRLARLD
Description: Recombinant purified human EHMT2 913-1193 (55 μM) synthesized by Viva was used for all experiments. Biotinylated histone peptides were synthesized by Biopeptide and HPLC-purified to >95% purity. Streptavidin Flashplates and seals were purchased from PerkinElmer and 384 Well V-bottom Polypropylene Plates were from Greiner. ^3H-labeled S-adenosylmethionine (^3H-SAM) was obtained from American Radiolabeled Chemicals with a specific activity of 80 Ci/mmol. Unlabeled SAM and S-adenosylhomocysteine (SAH) were obtained from American Radiolabeled Chemicals and Sigma-Aldrich respectively. Flashplates were washed in a Biotek ELx-405 with 0.1% Tween. 384-well Flashplates and 96-well filter binding plates were read on a TopCount microplate reader (PerkinElmer). Compound serial dilutions were performed on a Freedom EVO (Tecan) and spotted into assay plates using a Thermo Scientific Matrix PlateMate (Thermo Scientific). Reagent cocktails were added by Multidrop Combi (Thermo Scientific).
General Procedure for EHMT2 Enzyme Assay on Histone Peptide Substrate.
10-point curves of test compounds were made on a Freedom EVO (Tecan) using serial 3-fold dilutions in DMSO, beginning at 2.5 mM (final top concentration of compound was 50 μM and the DMSO was 2%). A 1 μL aliquot of the inhibitor dilution series was spotted in a polypropylene 384-well V-bottom plate (Greiner) using a Thermo Scientific Matrix PlateMate (Thermo Scientific). […] Compounds were incubated for 30 minutes with 40 μL per well of 0.031 nM EHMT2 (recombinant purified human EHMT2 913-1193, Viva) in 1× assay buffer (20 mM Bicine [pH 7.5], 0.002% Tween 20, 0.005% Bovine Skin Gelatin and 1 mM TCEP). […] Reactions were incubated for 60 minutes at room temperature and quenched with 10 μL per well of 400 μM unlabeled SAM, then transferred to a 384-well streptavidin Flashplate (PerkinElmer) and washed in a Biotek ELx-405 well washer with 0.1% Tween after 60 minutes. 384-well Flashplates were read on a TopCount microplate reader (PerkinElmer).

IC50 ([1]; Table II) [µM] | IC50 ([2]; Table II) [µM] | SMILES | also measured
> 10 | > 10 | CCCCNc1ccnc(NCCCN)n1 [Compound 77] | –
> 10 | > 10 | CCCCNc1nccc(NC2CCOCC2)n1 [Compound 63] | –
> 10 | > 10 | CC(=O)N1CCC(CNc2ccnc(Nc3cccc(NC(=O)CCN4CCCC4)c3)n2)CC1 [Compound 114] | –
1 to 10 | 1 to 10 | COc1ccc(Nc2nccc(NCC3CCNCC3)n2)cc1OCCCC1CCCC1 [Compound 109] | –
> 10 | > 10 | CCCCNc1ccnc(NCCCC)n1 [Compound 72] | –
1 to 10 | 1 to 10 | CCCCNc1ccnc(NCC2CCN(C)CC2)n1 [Compound 87] | –
> 10 | > 10 | CCCCNc1nccc(NCC2CCC(N)CC2)n1 (stereo not drawn) [Compound 68] | –
> 10 | > 10 | CCCCNc1nc(NCC2CCNCC2)cc(C(N)=O)n1 [Compound 85] | –
1 to 10 | 1 to 10 | CCCCNc1nc(C#N)cc(NCC2CCNCC2)n1 [Compound 94] | –
> 10 | > 10 | CCCCNc1nccc(NCC2CCCCC2)n1 [Compound 61] | –
0.1 to 1 | 0.1 to 1 | COc1ccc(Nc2nccc(NCC3CCN(C(C)=O)CC3)n2)cc1OCCCN1CC[C@@H](F)C1 [Compound 118] | –
> 10 | > 10 | CCCCNc1nccc(NCC2CCN(C(C)=O)CC2)n1 [Compound 66] | –
> 10 | > 10 | CCCCNc1nccc(NCC2CCOCC2)n1 [Compound 59] | –
> 10 | > 10 | CCCCNc1nccc(NC2CCC(N)CC2)n1 (stereo not drawn) [Compound 70] | –
> 10 | > 10 | CCCCNc1nccc(NC2CCCCC2)n1 [Compound 58] | –
> 10 | > 10 | CCCCNc1nccc(NCC2CCCO2)n1 (stereo not drawn) [Compound 67] | –
> 10 | > 10 | CCCCNc1nccc(NCC2CCC(NC(C)=O)CC2)n1 (stereo not drawn) [Compound 69] | –
> 10 | > 10 | CCCCNc1nccc(C(=O)NC2CCOCC2)n1 [Compound 81] | –
> 10 | > 10 | O=C(NCCNc1ccnc(NCC2CCNCC2)n1)c1ccc2[nH]c(=O)oc2c1 [Compound 95] | –
> 10 | > 10 | CCCCNc1nc(NCC2CCNCC2)ncc1C#N [Compound 84] | –
> 10 | 1 to 10 | O=C1Cc2cc(C(=O)NCCNc3nccc(NCC4CCNCC4)n3)ccc2N1 [Compound 105] | –
> 10 | > 10 | CCCCNc1nccc(NCCCN2CCCC2)n1 [Compound 74] | –
> 10 | > 10 | CCCCNc1ncc(C(N)=O)c(NCC2CCNCC2)n1 [Compound 89] | –

More lines, now with the values behind:

SMILES | IC50 ([1]; Table II) [µM] | IC50 ([2]; Table II) [µM] | also measured
COc1ccc(Nc2nccc(NCC3CCN(C(C)=O)CC3)n2)cc1OCCCN1CC[C@H](F)C1 [Compound 117] | 1 to 10 | 1 to 10 | –
CNc1nc(Nc2ccc(OC)c(OCCCN3CCCC3)c2)nc2ccccc12 [Compound 263, N^2-(4-methoxy-3-(3-(pyrrolidin-1-yl)propoxy)phenyl)-N^4-methylquinazoline-2,4-diamine] | – | – | IC50 ([1]; Table III): < 0.1 µM; IC50 ([2]; Table III): < 0.1 µM
Cc1ccc(NC(=O)Nc2ccc(Nc3nc(C)cc(N4CCCC4)n3)cc2)cc1 [Compound 1119] | – | – | pIC50 [1]: 5.00 to 6.00; pIC50 [2]: 5.00 to 6.00
COc1ccc(Nc2ccc3ncn(C)c3c2)cc1OCCCN1CCCC1 [Compound 200] | > 10 | > 10 | –
CC(=O)N1CCC(CNc2ccnc(Nc3cccc(NC(=O)c4ccc5c(c4)CC(=O)N5)c3)n2)CC1 [Compound 115] | > 10 | > 10 | –
COc1ccc(Nc2nccc(CNC3CCNCC3)n2)cc1OCCCN1CCCC1 [Compound 104] | > 10 | > 10 | –
CCNc1nc(C)cc(Nc2ccc(NC(=O)Nc3ccc(C)c(C)c3)cc2)n1 [Compound 1118] | – | – | pIC50 [1]: < 5.00; pIC50 [2]: 5.00 to 6.00
COc1ccc(Nc2ccnc(NCC3CCNCC3)c2)cc1OCCCN1CCCC1 [Compound 11, N^4-(4-methoxy-3-(3-(pyrrolidin-1-yl)propoxy)phenyl)-N^2-(piperidin-4-ylmethyl)pyridine-2,4-diamine] | < 0.1 | < 0.1 | –
CC(=O)N1CCC(CNc2ccnc(Nc3cccc(NC(=O)c4cc(C5CC5)on4)c3)n2)CC1 [Compound 122] | > 10 | > 10 | –
COc1cnc(Nc2cc(CNC3CCOCC3)ccn2)cc1OCCCN1CCCC1 [Compound 110] | 1 to 10 | 1 to 10 | –
COc1ccc(Nc2cc(C)nc3ncnn23)cc1OCCCN1CCCC1 [Compound 202] | > 10 | > 10 | –
CNc1ccnc(Nc2cccc(OCC(O)CN3CCCC3)c2)n1 (stereo not drawn) [Compound 212] | 1 to 10 | 1 to 10 | –
COc1ccc(Nc2nccc(CN(C)C3CCOCC3)n2)cc1OCCCN1CCCC1 [Compound 112] | > 10 | > 10 | –
COc1ccc(Nc2nccc(CCN3CCN(C(C)=O)CC3)n2)cc1OCCCN1CCCC1 [Compound 196] | > 10 | > 10 | –
COc1ccc(Nc2nccc(NCC3CCN(C(C)=O)CC3)n2)cc1OCC1CCCN1C (stereo not drawn) [Compound 120] | 0.1 to 1 | 1 to 10 | –
COc1ccc(Nc2nccc(N3CCOCC3)n2)cc1OCCCN1CCCC1 [Compound 102] | > 10 | > 10 | –
